Source: patent US20050032904A1, “Composition and use of allylamine derivatives” (priority 2003, published 2005)

Assays:
Hep 3B cells = experiment: Flow cytometry (FACS) cell cycle analysis; format: cell-based, human; conditions: TB 10-150 μM, 15 h
Hep3B = experiment: Determination of cell growth curve (cell counting); format: cell-based, human; conditions: 5 days
Method: (§1) The effect of TB on the growth of various human cancer cells […]. In FIG. 1, (A) COLO205, (B) HT29, (C) HepG2, (D) Hep3B, (E) HL60, and (F) normal human fibroblast cells were treated with various concentrations of TB (30 to 120 μM). Media with or without TB were renewed daily until cell counting. Three samples were analyzed in each group. Values represent mean±S.E. The cells were cultured for 5 days with or without TB (30-120 μM), and then the cells were harvested and counted. […] Human colon cancer, hepatoma, leukemia, and human normal fibroblast cells at a density of 1×10^4 were plated in 35-mm Petri dishes. TB was added at the indicated doses in 0.05% dimethyl-sulfoxide (DMSO). For control specimens, the same volume of the 0.05% DMSO without TB was added. Media with and without TB were changed daily until cell counting

HL60 = experiment: Determination of cell growth curve (cell counting); format: cell-based, human; conditions: 5 days
Method: as §1

HepG2 = experiment: Determination of cell growth curve (cell counting); format: cell-based, human; conditions: 5 days
Method: as §1

HT29 = experiment: Determination of cell growth curve (cell counting); format: cell-based, human; conditions: 5 days
Method: as §1

human fibroblasts = experiment: Flow cytometry (FACS) cell cycle analysis; format: cell-based
COLO 205 cells [1] = experiment: Flow cytometry (FACS) cell cycle analysis; format: cell-based, human
Method: When they were returned to culture media containing 10% FCS and 0.05% DMSO (control) or 90 μM TB in 0.05% DMSO (which started them all on a new cell cycle) and, at various times thereafter, they were harvested for flow cytometry analysis. […] COLO 205 (A) and HT29 (B) cells were synchronized with 0.04% FCS for 24 h as described in Examples. After synchronization, the cells were then released into complete medium (10% FCS) containing 0.05% DMSO (left panel), or 90 μM TB in 0.05% DMSO (right panel). Percentage of cells in G0/G1, S, and G2/M phases of the cell cycle were determined using established CellFIT DNA analysis software. […] In Hep3B (D) and HL60 (E), TB caused the occurrence of apoptosis in a dose-dependent manner. […] FACS analysis of DNA content after 15 h release from quiescence by incubation in culture media supplemented with 10% FCS and various concentrations of TB in 0.05% DMSO. Percentage of cells in G0/G1, S, and G2/M phases of the cell cycle were determined using established CellFIT DNA analysis software.
The invention further tested whether TB can induce cell cycle arrest at a lower concentration with longer exposure. […] The COLO 205 cells were exposed to culture media supplemented with 10% FCS and various concentrations (1 and 5 μM) of TB in 0.05% DMSO for the indicated times. Media with and without TB were changed daily until flowcytometry analysis performed. Percentage of cells in G0/G1, S, and G2/M phases of the cell cycle were determined using established CellFIT DNA analysis software. Three samples were analyzed in each group, and values represent the mean±S.E.
The COLO 205 and HT 29 cells were synchronized as previously described. (Chen R J, et. al., Toxicology & Applied Pharmacology 2000;169(2):132-41.). After the cells had grown to 70-80% confluence, they were rendered quiescent by incubation for 24 h in RPMI 1640 containing 0.04% FCS, and challenged with 10% FCS. Then, after release using trypsin-EDTA, they were harvested at various times, washed twice with PBS/0.1% dextrose, and fixed in 70% ethanol at 4° C. Nuclear DNA was stained with a reagent containing propimdiamdiodine (50 DNase-free RNase (2 U/ml) and measured using a fluorescence-activated cell sorter (FACS). The population of nuclei in each phase of the cell cycle was determined using established CellFIT DNA analysis software (Becton Dickenson, San Jose, Calif.).

COLO 205 tumor tissues = experiment: DNA fragmentation analysis / TdT nick end labeling in tumor tissues; format: in vivo, nude mouse; conditions: tumor from TB-treated mouse, 6 weeks
Hep G2 cells = experiment: Flow cytometry (FACS) cell cycle analysis; format: cell-based, human; conditions: various concentrations of TB, 15 h after release from quiescence; dose-dependent
COLO 205 cells [2] = experiment: DNA fragmentation (DNA ladder) by electrophoresis of genomic DNA; format: cell-based, human
Method: Genomic DNAs extracted from TB-treated COLO 205 were examined by gel electrophoresis. […] In FIG. 9, the part of (A) refers to potentiation of ND-induced apoptosis by TB. […] DNA fragmentation was examined at 24 h after drug treatment. In the lanes 2 and 8, cells received mock treatment as controls. The symbols of “M” (in lanes 1 and 7), refer to “DNA size marker.” (B) average tumor volume of DMSO-treated vs. drug-treated nude mice (n=5). (C) tumor weight, (D) animal body weight, and (E) tumor/body weight ratio were measured at the end of experiment. Five samples were analyzed in each group, and values represent the mean±S.E. Comparisons were subjected to ANOVA followed by Fisher's least significant difference test. Significance was accepted at p<0.05. *TB-, ND-, and TB+ND-treated group different from DMSO-treated group. TB+ND-treated group different from TB- or ND-treated group.

[3] = test system: p53 and p21/Cip1 protein in COLO 205 tumor; experiment: Western blot of COLO 205 tumor; format: in vivo, nude mouse; conditions: tumor isolated at 6 weeks after TB treatment
Method: Western blot analyses show the levels of p53 and p21/Cip1 protein in COLO 205 tumor (C). COLO 205 tumors were isolated for protein extraction at 6 weeks after DMSO or TB treatment. Membranes were also probed with anti-GAPDH antibody to correct for differences in protein loading. […] Western blot analysis was performed as previously described (Chen R J, et. al., Toxicology & Applied Pharmacology 2000;169(2):132-41; Lee W S, et. al., Circulation Research 1998;82(8):845-51.). Immunodetection was carried by probing with proper dilutions of specific antibodies at room temperature for 2 h. Anti-p21/Cip1, anti-p27/Kip1, anti-p53, anti-GAPDH monoclonal antibodies (Santa Cruz, Inc. CA); anti-cyclin B1, D1, and D3, anti-cdk2 and cdk4, and PCNA monclonal antibodies (Transduction Laboratories, Lexington, Ky.) were used at a concentration of 1:1,000 dilution. Anti-cyclin A and E polyclonal antibodies (Transduction, San Diego, Calif.) were used at a concentration of 1:250 dilution. […] In each experiment, membranes were also probed with anti-GAPDH antibody to correct for differences in protein loading.

[4] = TB 30-120 μM, media renewed daily, dose-dependent
[5] = TB concentration increased to 60 μM

SMILES: CN(C/C=C/C#CC(C)(C)C)Cc1cccc2ccccc12 [TB, 1-Naphthalenemethanamine, N-(6,6-dimethyl-2-hepten-4-ynyl)-N-methyl-, (E)-]
- apoptosis (presence of sub G1) (Hep 3B cells): dose-dependently caused the occurrence of apoptosis
- G0/G1 arrest (Hep 3B cells; p53 partial deleted cells): did not induce G0/G1 arrest
- cell number (Hep3B; [4]): decreased cell number
- cell growth at TB 60 μM (Hep3B; [5]): cell growth arrest or cell death
- cell number (HL60; [4]): decreased cell number
- cell growth at TB 60 μM (HL60; [5]): cell growth arrest or cell death
- cell number (HepG2; [4]): decreased cell number
- cell growth at TB 60 μM (HepG2; [5]): cell growth arrest or cell death
- cell number (HT29; [4]): decreased cell number
- cell growth at TB 60 μM (HT29; [5]): cell growth arrest or cell death
- cytotoxicity for untransformed human fibroblasts (human fibroblasts; TB 10-150 μM): not cytotoxic
- cell cycle arrest or cell death (human fibroblasts; TB treatment for 15 h): did not induce cell cycle arrest or cell death
- increase of G0/G1 population (COLO 205 cells [1]; 60 μM TB alone, 15 h): about 2.3 fold
- accumulation of cells at the G0/G1 phase (COLO 205 cells [1]; 90 μM TB after release from quiescence): > 90%
- G0/G1 cell cycle arrest at low concentration with longer exposure (COLO 205 cells [1]; TB 1 μM for 3 days): arrested the COLO 205 cells at the G0/G1 phase
- G0/G1 cell cycle arrest at low concentration with longer exposure (COLO 205 cells [1]; TB 1 μM for 4 days, media changed daily): induce significant G0/G1 cell cycle arrest
- G0/G1 arrest, dose effect (COLO 205 cells [1]; various concentrations of TB, 15 h after release from quiescence, dose-dependent): induced G0/G1 arrest
- apoptosis in COLO 205 tumor (nick end labeling, DNA fragmentation) (COLO 205 tumor tissues): Induction of apoptosis
- G0/G1 arrest, dose effect (Hep G2 cells): induced G0/G1 arrest
- DNA ladder (COLO 205 cells [2]; 10 μM TB alone, 24 h): does not induce DNA ladder
- effect of TB on ND-induced apoptosis (COLO 205 cells [2]; co-treatment with TB 10 μM and ND): enhanced the ND-induced apoptosis
- contents of p53 and p21/Cip1 in tumor [3]: increased
